Laboratory results taken from ChEMBL document CHEMBL3885881, “DrugMatrix”.

Organism: Rattus norvegicus
Assay: DrugMatrix - Regimen: Daily Repeat
Assay type: toxicity, organism-based, Sprague-Dawley
Set-up: regimen Daily Repeat, gender Male, age 6-8 weeks
Details: in vivo, po, route oral GAVAGE, […]; for ABSOLUTE BASOPHIL / ABSOLUTE EOSINOPHIL / ABSOLUTE LYMPHOCYTE / ABSOLUTE MONOCYTE / ABSOLUTE SEGMENTED NEUTROPHIL / BASOPHIL / EOSINOPHIL / ERYTHROCYTE COUNT / HEMATOCRIT / HEMOGLOBIN / LEUKOCYTE COUNT / LYMPHOCYTE / MEAN CORPUSCULAR HEMOGLOBIN / MEAN CORPUSCULAR HEMOGLOBIN CONCENTRATION / MEAN CORPUSCULAR VOLUME / MONOCYTE / NEUTROPHIL / NUCLEATED RED BLOOD CELLS / PLATELET COUNT: tissue Blood; for ALANINE AMINOTRANSFERASE / ALBUMIN / ALKALINE PHOSPHATASE / ASPARTATE AMINOTRANSFERASE / BLOOD UREA NITROGEN / CARBON DIOXIDE / CHLORIDE / CHOLESTEROL / CREATINE PHOSPHOKINASE / CREATININE / GLUCOSE / LACTATE DEHYDROGENASE / LIPASE / PHOSPHORUS / POTASSIUM / SODIUM / TOTAL BILIRUBIN / TOTAL PROTEIN / URIC ACID: tissue Plasma
[1] = 24 mg/kg, 72 h, dose level Low, time 3 day
[2] = 24 mg/kg, 120 h, dose level Low, time 5 day
[3] = 93 mg/kg, 72 h, dose level High, time 3 day
[4] = 93 mg/kg, 120 h, dose level High, time 5 day

## Cc1cccc(Nc2ccccc2C(=O)O)c1C [MEFENAMIC ACID]
[1]
  ABSOLUTE BASOPHIL: 0 CELLS/uL
  ABSOLUTE EOSINOPHIL: 120.67 CELLS/uL
  ABSOLUTE LYMPHOCYTE: 16868.33 CELLS/uL
  ABSOLUTE MONOCYTE: 133 CELLS/uL
  ABSOLUTE SEGMENTED NEUTROPHIL: 1478 CELLS/uL
  BASOPHIL: 0%
  EOSINOPHIL: 0.67%
  ERYTHROCYTE COUNT: 5.76 x10E6/uL
  HEMATOCRIT: 38.77%
  HEMOGLOBIN: 15.4 G/DL
  LEUKOCYTE COUNT: 18.6 x10E3/uL
  LYMPHOCYTE: 90.67%
  MEAN CORPUSCULAR HEMOGLOBIN: 26.73 pg
  MEAN CORPUSCULAR HEMOGLOBIN CONCENTRATION: 39.73 G/DL
  MEAN CORPUSCULAR VOLUME: 67.37 fL
  MONOCYTE: 0.67%
  NEUTROPHIL: 8%
  NUCLEATED RED BLOOD CELLS: 0 /100WBC
  PLATELET COUNT: 1314.33 x10E3/uL
  ALANINE AMINOTRANSFERASE: 80.67 u/L
  ALBUMIN: 4.33 G/DL
  ALKALINE PHOSPHATASE: 454.67 u/L
  ASPARTATE AMINOTRANSFERASE: 99.67 u/L
  BLOOD UREA NITROGEN: 12 mg/dL
  CARBON DIOXIDE: 32 mmol/L
  CHLORIDE: 102.33 MEQ/L
  CHOLESTEROL: 71 mg/dL
  CREATINE PHOSPHOKINASE: 725 u/L
  CREATININE: 0.28 mg/dL
  GLUCOSE: 165.67 mg/dL
  LACTATE DEHYDROGENASE: 174.67 u/L
  LIPASE: 13 u/L
  PHOSPHORUS: 13.37 mg/dL
  POTASSIUM: 6.54 MEQ/L
  SODIUM: 146.73 MEQ/L
  TOTAL BILIRUBIN: 0.2 mg/dL
  TOTAL PROTEIN: 6 G/DL
  URIC ACID: 1.83 mg/dL
[2]
  ABSOLUTE BASOPHIL: 0 CELLS/uL
  ABSOLUTE EOSINOPHIL: 0 CELLS/uL
  ABSOLUTE LYMPHOCYTE: 17204 CELLS/uL
  ABSOLUTE MONOCYTE: 113.33 CELLS/uL
  ABSOLUTE SEGMENTED NEUTROPHIL: 1482.67 CELLS/uL
  BASOPHIL: 0%
  EOSINOPHIL: 0%
  ERYTHROCYTE COUNT: 5.87 x10E6/uL
  HEMATOCRIT: 36.9%
  HEMOGLOBIN: 14.47 G/DL
  LEUKOCYTE COUNT: 18.8 x10E3/uL
  LYMPHOCYTE: 91.33%
  MEAN CORPUSCULAR HEMOGLOBIN: 24.67 pg
  MEAN CORPUSCULAR HEMOGLOBIN CONCENTRATION: 39.23 G/DL
  MEAN CORPUSCULAR VOLUME: 62.87 fL
  MONOCYTE: 0.67%
  NEUTROPHIL: 8%
  NUCLEATED RED BLOOD CELLS: 0.33 /100WBC
  PLATELET COUNT: 1359 x10E3/uL
  ALANINE AMINOTRANSFERASE: 61.67 u/L
  ALBUMIN: 4.17 G/DL
  ALKALINE PHOSPHATASE: 457.33 u/L
  ASPARTATE AMINOTRANSFERASE: 87.33 u/L
  BLOOD UREA NITROGEN: 13.33 mg/dL
  CARBON DIOXIDE: 31.33 mmol/L
  CHLORIDE: 101.67 MEQ/L
  CHOLESTEROL: 67.67 mg/dL
  CREATINE PHOSPHOKINASE: 379.33 u/L
  CREATININE: 0.19 mg/dL
  GLUCOSE: 144.67 mg/dL
  LACTATE DEHYDROGENASE: 449.33 u/L
  LIPASE: 11.33 u/L
  PHOSPHORUS: 11.87 mg/dL
  POTASSIUM: 6.54 MEQ/L
  SODIUM: 145.2 MEQ/L
  TOTAL BILIRUBIN: 0.2 mg/dL
  TOTAL PROTEIN: 5.97 G/DL
  URIC ACID: 1.43 mg/dL
[3]
  ABSOLUTE BASOPHIL: 0 CELLS/uL
  ABSOLUTE EOSINOPHIL: 46.33 CELLS/uL
  ABSOLUTE LYMPHOCYTE: 12604 CELLS/uL
  ABSOLUTE MONOCYTE: 348.67 CELLS/uL
  ABSOLUTE SEGMENTED NEUTROPHIL: 1701 CELLS/uL
  BASOPHIL: 0%
  EOSINOPHIL: 0.33%
  ERYTHROCYTE COUNT: 5.47 x10E6/uL
  HEMATOCRIT: 35.43%
  HEMOGLOBIN: 13.77 G/DL
  LEUKOCYTE COUNT: 14.7 x10E3/uL
  LYMPHOCYTE: 85.67%
  MEAN CORPUSCULAR HEMOGLOBIN: 25.17 pg
  MEAN CORPUSCULAR HEMOGLOBIN CONCENTRATION: 38.9 G/DL
  MEAN CORPUSCULAR VOLUME: 64.77 fL
  MONOCYTE: 2.33%
  NEUTROPHIL: 11.67%
  NUCLEATED RED BLOOD CELLS: 0.33 /100WBC
  PLATELET COUNT: 1191.33 x10E3/uL
  ALANINE AMINOTRANSFERASE: 64.33 u/L
  ALBUMIN: 3.93 G/DL
  ALKALINE PHOSPHATASE: 288.33 u/L
  ASPARTATE AMINOTRANSFERASE: 83 u/L
  BLOOD UREA NITROGEN: 11 mg/dL
  CARBON DIOXIDE: 34 mmol/L
  CHLORIDE: 101.67 MEQ/L
  CHOLESTEROL: 82 mg/dL
  CREATINE PHOSPHOKINASE: 546.33 u/L
  CREATININE: 0.16 mg/dL
  GLUCOSE: 149 mg/dL
  LACTATE DEHYDROGENASE: 123 u/L
  LIPASE: 11 u/L
  PHOSPHORUS: 12.4 mg/dL
  POTASSIUM: 6.65 MEQ/L
  SODIUM: 145.07 MEQ/L
  TOTAL BILIRUBIN: 0.17 mg/dL
  TOTAL PROTEIN: 5.63 G/DL
  URIC ACID: 1.57 mg/dL
[4]
  ABSOLUTE BASOPHIL: 0 CELLS/uL
  ABSOLUTE EOSINOPHIL: 0 CELLS/uL
  ABSOLUTE LYMPHOCYTE: 16873.67 CELLS/uL
  ABSOLUTE MONOCYTE: 0 CELLS/uL
  ABSOLUTE SEGMENTED NEUTROPHIL: 1459.67 CELLS/uL
  BASOPHIL: 0%
  EOSINOPHIL: 0%
  ERYTHROCYTE COUNT: 5.73 x10E6/uL
  HEMATOCRIT: 35.9%
  HEMOGLOBIN: 14.23 G/DL
  LEUKOCYTE COUNT: 18.33 x10E3/uL
  LYMPHOCYTE: 92%
  MEAN CORPUSCULAR HEMOGLOBIN: 24.87 pg
  MEAN CORPUSCULAR HEMOGLOBIN CONCENTRATION: 39.63 G/DL
  MEAN CORPUSCULAR VOLUME: 62.73 fL
  MONOCYTE: 0%
  NEUTROPHIL: 8%
  NUCLEATED RED BLOOD CELLS: 0.33 /100WBC
  PLATELET COUNT: 1419 x10E3/uL
  ALANINE AMINOTRANSFERASE: 66.67 u/L
  ALBUMIN: 4.3 G/DL
  ALKALINE PHOSPHATASE: 382.67 u/L
  ASPARTATE AMINOTRANSFERASE: 85 u/L
  BLOOD UREA NITROGEN: 11.67 mg/dL
  CARBON DIOXIDE: 31.67 mmol/L
  CHLORIDE: 101.33 MEQ/L
  CHOLESTEROL: 76.67 mg/dL
  CREATINE PHOSPHOKINASE: 196.33 u/L
  CREATININE: 0.14 mg/dL
  GLUCOSE: 143 mg/dL
  LACTATE DEHYDROGENASE: 166.33 u/L
  LIPASE: 11.33 u/L
  PHOSPHORUS: 12.5 mg/dL
  POTASSIUM: 6.98 MEQ/L
  SODIUM: 144.2 MEQ/L
  TOTAL BILIRUBIN: 0.17 mg/dL
  TOTAL PROTEIN: 6.23 G/DL
  URIC ACID: 2.33 mg/dL
